Assay results taken from the NIST ThermoML archive (doi:10.1021/je050020m).

Assay: xn = mol fraction of the nth substance listed
Conditions: Liquid, Vibrating tube method

CCCCCCCCCC [decane] + O=C=O
Conditions | mass density [kg/m3]
323.05 K, 14026 kPa, x2 = 0.0551 | 721.01
323.05 K, 15008 kPa, x2 = 0.0551 | 721.76
323.05 K, 16035 kPa, x2 = 0.0551 | 722.62
323.05 K, 17008 kPa, x2 = 0.0551 | 723.4
323.05 K, 18019 kPa, x2 = 0.0551 | 724.22
323.05 K, 18994 kPa, x2 = 0.0551 | 724.89
323.05 K, 20009 kPa, x2 = 0.0551 | 725.73
323.05 K, 21010 kPa, x2 = 0.0551 | 726.47
323.05 K, 21987 kPa, x2 = 0.0551 | 727.22
323.05 K, 23060 kPa, x2 = 0.0551 | 728.04
323.05 K, 23980 kPa, x2 = 0.0551 | 728.74
323.05 K, 25055 kPa, x2 = 0.0551 | 729.61
323.06 K, 5014 kPa, x2 = 0.2369 | 719.6
323.06 K, 6022 kPa, x2 = 0.2369 | 720.66
323.06 K, 7021 kPa, x2 = 0.2369 | 721.73
323.06 K, 7029 kPa, x2 = 0.4536 | 732.05
323.06 K, 8017 kPa, x2 = 0.4536 | 733.42
323.06 K, 8020 kPa, x2 = 0.2369 | 722.8
323.06 K, 9010 kPa, x2 = 0.2369 | 723.79
323.06 K, 9018 kPa, x2 = 0.4536 | 734.79
323.06 K, 10024 kPa, x2 = 0.4536 | 736.13
323.06 K, 10030 kPa, x2 = 0.2369 | 724.84
323.06 K, 11018 kPa, x2 = 0.2369 | 725.81
323.06 K, 11019 kPa, x2 = 0.4536 | 737.41
323.06 K, 12021 kPa, x2 = 0.2369 | 726.78
323.06 K, 12025 kPa, x2 = 0.4536 | 738.69
323.06 K, 13001 kPa, x2 = 0.2369 | 727.75
323.06 K, 13003 kPa, x2 = 0.4536 | 739.89
323.06 K, 14021 kPa, x2 = 0.2369 | 728.7
323.06 K, 14027 kPa, x2 = 0.4536 | 741.16
323.06 K, 15001 kPa, x2 = 0.4536 | 742.33
323.06 K, 15014 kPa, x2 = 0.2369 | 729.63
323.06 K, 16010 kPa, x2 = 0.2369 | 730.54
323.06 K, 16024 kPa, x2 = 0.4536 | 743.53
323.06 K, 17006 kPa, x2 = 0.2369 | 731.46
323.06 K, 17010 kPa, x2 = 0.4536 | 744.68
323.06 K, 18028 kPa, x2 = 0.2369 | 732.36
323.06 K, 18030 kPa, x2 = 0.4536 | 745.84
323.06 K, 19000 kPa, x2 = 0.4536 | 746.93
323.06 K, 19016 kPa, x2 = 0.2369 | 733.24
323.06 K, 20015 kPa, x2 = 0.2369 | 734.11
323.06 K, 20028 kPa, x2 = 0.4536 | 748.09
323.06 K, 21001 kPa, x2 = 0.4536 | 749.17
323.06 K, 21027 kPa, x2 = 0.2369 | 735
323.06 K, 22020 kPa, x2 = 0.4536 | 750.24
323.06 K, 22023 kPa, x2 = 0.2369 | 735.85
323.06 K, 23012 kPa, x2 = 0.4536 | 751.33
323.06 K, 23022 kPa, x2 = 0.2369 | 736.71
323.06 K, 24006 kPa, x2 = 0.2369 | 737.58
323.06 K, 24021 kPa, x2 = 0.4536 | 752.42
323.06 K, 25004 kPa, x2 = 0.2369 | 738.42
323.06 K, 25029 kPa, x2 = 0.4536 | 753.51
332.91 K, 12008 kPa, x2 = 0.8114 | 740.55
332.91 K, 13051 kPa, x2 = 0.8114 | 744.82
332.91 K, 14018 kPa, x2 = 0.8114 | 748.57
332.91 K, 15048 kPa, x2 = 0.8114 | 752.37
332.91 K, 15985 kPa, x2 = 0.8114 | 755.64
332.91 K, 17015 kPa, x2 = 0.8114 | 759.04
332.91 K, 18008 kPa, x2 = 0.8114 | 762.27
332.91 K, 19002 kPa, x2 = 0.8114 | 765.33
332.91 K, 20017 kPa, x2 = 0.8114 | 768.38
332.91 K, 21018 kPa, x2 = 0.8114 | 771.25
332.91 K, 22044 kPa, x2 = 0.8114 | 774.13
332.91 K, 23040 kPa, x2 = 0.8114 | 776.83
332.91 K, 24008 kPa, x2 = 0.8114 | 779.4
332.91 K, 25047 kPa, x2 = 0.8114 | 782.09
332.94 K, 1997 kPa, x2 = 0.0551 | 702.61
